SMILES strings stand for the structures. A value given as a limit tells only on which side of the number the result lay.

In one assay the test system is Haemophilus influenzae. Put plainly: MIC at pH 3.5, CLSI, Mueller-Hinton broth. It is filed as cell-based. To be noted: 5 isolates.
In assay [1] the test system is wild type E. coli (ATCC 25922). Put plainly: Bacterial cytological profiling at pH 4, 5.5, 7 (Example 7), E. coli. Conditions: pH 5.5 and 7. It is filed as cell-based. The procedure:
This bacterial cytological profiling (BCP) investigation uses methods and materials described previously by Nonejuie, P., Burkart, M., Poglianoa, K., Pogiano, J. (2013). Bacterial cytological profiling rapidly identifies the cellular pathways targeted by antibacterial molecules. Proc. Natl. Acad. Sci. U.S.A. 110(40):16169-16174. doi: 10.1073/pnas.1311066110.
For viable cell counts, cells are grown to OD600≈0.4 and diluted 1:1 into buffered or unbuffered media containing various compound concentrations. Samples are then collected and serially diluted (1:10) on a 96 well plate. Five microliters from each well are spotted on LB plates, incubated at 30° C., and viable cells are counted the next day.
Samples are collected at 10, 30, 120, and 240 min of exposure for viable cell count and imaging. For imaging, E. coli and S. aureus 200 μL of treated cells per time point are stained with 0.8 μg/mL FM4-64, 1.5 μg/mL DAPI, and 0.4 μM SYTOXGreen (Molecular Probes/Invitrogen). P. aeruginosa samples are stained 0.4 μM SYTOX Green, 28 μg/mL DAPI, and 1 μg/mL FM 4-64. Cells are transferred to an agarose pad (20% LB, 1% agarose) for imaging.
For Nu-3 and Nu-8 stocks (at pH 4, 5.5 and 7), stock concentration is 500 mg/mL. For pH 4, the stocks are prepared by dissolving Nu-3 in 25 mM citrate buffer and Nu-8 in 350 mM citric acid. […]

The subject of another assay is bacterial strains. Put plainly: MIC at pH 3.5 in human and mouse urine. The format is cell-based.
In the next assay the test system is E. coli. Put plainly: Broth microdilution MIC at incremental pH, E. coli. The format is cell-based. As to the method:
MIC testing is conducted using the broth (Mueller Hinton Broth) microdilution procedures relevant to each organism group as established by the Clinical and Laboratory Standards Institute (CLSI; 3-7). MIC plates are prepared in accordance with CLSI (3-7). To prepare the test plates, automated liquid handlers are used to conduct serial dilutions and liquid transfers. Automated liquid handlers utilized in this study include the Multidrop 384 (Labsystems, Helsinki, Finland) and the Biomek 2000 (Beckman Coulter, Fullerton CA). The solution is diluted to desired pH using 1 M Citric Acid or 1 M NaOH buffer. A standardized inoculum of each test organism is prepared per CLSI methods (3, 5-7) to equal a 0.5 McFarland standard in the appropriate media followed by an additional 1:20 dilution (1:10 for anaerobes).
The plates are then inoculated with 10 μL of the diluted 0.5 McFarland suspension using the Biomek 2000 from low to high drug concentration, resulting in a final concentration of approximately 5×10^5 CFU/mL per well. An un-inoculated plate is incubated for the purpose of assessing solubility of the drug in the test media. The plates are stacked 3 to 4 high, covered with a sterile lid on the top plate, and incubated for 18 to 24 hours according to CLSI. The MIC is recorded as the lowest concentration of respective compound that inhibited visible growth of the organism.

Assay [2] has as its system Helicobacter pylori SS1 (CagA+, VacA+). Put plainly: Helicobacter pylori stomach infection model in mice, oral treatment. It is filed as in vivo, C57/BL6 mice. The source says: The mouse strain used in this study is C57/BL6 ranging from 5-6 weeks in age and 18-22 grams in weight. Mice are housed five to a cage with free access to food and water in accordance with NIH guidelines.
A bacterial strain of Helicobacter pylori SS1 (CagA+, VacA+) is adapted for the mouse model from a human clinical isolate and validated in this infection model.
At 6 days prior to infection, a frozen stock is streaked onto one to two Columbia 5% sheep blood agar plates, and the plates are microaerophilically incubated for 72 hours at 37° C. After 72 hours, the plate growth is subcultured onto five Columbia 5% sheep blood agar plates and is incubated as before. After another 72 hours of incubation, the plates are removed, and the plate growth is suspended in sterile 0.9% saline to an OD of 1.5-2.0 at 530 nm. This OD is approximately equal to 1.0e+09 CFU/mL, which is used to orally infect the mice on all 3 infection days. To infect mice, the mice are orally dosed 0.25 mL of the 1.0e+09 CFU/mL via a 20-22 G gavage needle. Mice need to be fasted only before the first infection.
At 1 week post-infection, mice are treated with Nu-8. Multiple dose antibiotic therapies are administered orally at 0.2 mL/dose. Antibiotics are administered 2 times per day and continued for 7 days. The control group is administered the vehicle alone.
Food is removed from cages 18 hours prior to euthanizing animals and each cage is clearly labeled that the animals are being experimentally fasted. Mice are euthanized (CO2 & cervical dislocation). […] The excised stomach is placed into a sterile petri dish and the luminal contents are rinsed away with sterile 1×PBS. Each rinsed stomach is placed into a 14-mL Falcon tube containing 2 mL of 1×PBS and stored on ice. Each stomach is homogenized, 10-fold serial diluted in 1×PBS, spot plated onto Columbia agar with 3.5% laked horse blood±the DENT selective antibiotic supplement, and microaerophilically incubated for 5 days at 37° C. Then, colonies are counted.
Nu-8 is administered at various doses (mg/kg), orally, twice-a-day for 7 days. The formulations, concentration and dose volumes for treatment is established prior to dosing. The positive control group consists of a triple therapy regimen (omeprazole, amoxicillin, and clarithromycin). Negative control used dosing solution without drugs.

Regarding `CCCCOP(=O)(O)OC[C@H]1O[C@@H](n2ccc(N)nc2=O)C[C@@H]1OP(=O)(O)OCCCC` [Nu-8, sodium ((2R,3S,5R)-5-(4-amino-2-oxopyrimidin-1(2H)-yl)-3-((butoxyoxidophosphor-yl)oxy)tetrahydrofuran-2-yl)methyl butyl phosphate], the “Nu-8 MIC (mg/mL) at pH 3.5” value in the assay with Haemophilus influenzae was 4.69-9.38 mg/mL. The “effect on cell permeability, cell viability and growth” value in assay [1] is “alters E. coli cell permeability and reduces cell viability and growth”. In addition, the “MICs in human and mouse urine” value in the assay on bacterial strains is on record as “comparable to those of Nu-8 in Mueller Hinton broth”. The minimal inhibitory concentration (MIC) against E. coli (pH 1) was 9.8 mg/mL; with E. coli (pH 3), 37.5 mg/mL; with E. coli (pH 4), 75 mg/mL; against E. coli (pH 5), over 75 mg/mL; in the assay on E. coli (pH 7), over 75 mg/mL. The “mean bacterial stomach titers of H. pylori SS1 (Log10)” value came to 5.62 log10 CFU in assay [2] (0.2 mg (1 mg/mL, 0.2 mL) PO bid for 7 days, +7 Days); 6.2 log10 CFU in assay [2] (0.2 mg (1 mg/mL, 0.2 mL) PO bid for 7 days, +14 Days); 5.21 log10 CFU in assay [2] (1.0 mg (5 mg/mL, 0.2 mL) PO bid for 7 days, +7 Days); 5.67 log10 CFU in assay [2] (1.0 mg (5 mg/mL, 0.2 mL) PO bid for 7 days, +14 Days); 4.74 log10 CFU in assay [2] (2 mg (10 mg/mL, 0.2 mL) PO bid for 7 days, +7 Days); 5.81 log10 CFU in assay [2] (2 mg (10 mg/mL, 0.2 mL) PO bid for 7 days, +14 Days).

Values taken from patent US12030908B2, “Antimicrobial compounds, compositions, and uses thereof” (Lakewood Amedex, Inc., priority 2017, dated 2024).
